Test results published in patent US20240207265A1, “TREATMENT OF CNS DISEASES WITH sGC STIMULATORS” (Tisento Therapeutics Inc., priority 2021, published 2024).

What was measured:
sGC enzyme = test: cGMP GloSensor cell-based assay, 384-well format (HEK293); parameters: species or system human; conditions: HEK293 GloSensor 40F cGMP cells, 10 μM DETA-NONOate, geometrical mean; read-out: Glo EC50
Description: Human embryonic kidney cells (HEK293) cells expressing GloSensor™ 40F cGMP (Part No: CS182801, Promega) were used to evaluate the activity of test compounds. The luminescent biosensors (engineered luciferase) that were incorporated into these cells detect cGMP formed by the compounds stimulating the sGC enzyme and emit luminescence.
cGMP GloSensor cells were maintained in Dulbecco's Modification of Eagle's Medium (DMEM) supplemented with fetal bovine serum (FBS, 10% final) and hygromycine (200 ug/ml). The day before assay, cells were plated in DMEM with 10% FBS in a 50 μL volume at a density of 1.5×10^4 cells/well in a poly-D-lysine coated 384-well flat white-bottom plate (Corning Cat No 35661). Cells were incubated overnight at 37° C. in a humidified chamber with 5% CO2. The next day, medium was removed and cells were replaced with 40 ul/well of GloSensor™, 2 mM (Promega Cat No E1291). Cells were treated for 90 minutes at 25° C. to allow the substrate to equilibrate in the cells. Test compounds and Diethylenetriamine NONOate (DETA-NONOate) was diluted to 3 mM (20×) in serum-free CO2 independent medium and serially diluted at 4× dilutions to create 5× dose curve from which 10 ul was added to the wells (x μM concentration for test compound solution and 10 μM concentration for DETA-NONOate solution; wherein x is one of the following final concentrations: 30 μM, 7.5 μM, 1.9 μM, 469 nM, 117 nM, 29.3 nM, 7.3 nM, 1.83 nM, 0.46 nM, 0.11 nM, 0.03 nM) For the kinetics studies, luminescense was measured right away for 0.2 sec per well with Envision (Perkin Elmer). For endpoint SAR screening, data were collected after 55 min incubation at room temperature.
(§1) Concentration response data were analyzed using a 4-parameter fit (log (agonist) vs. response-variable slope). The EC50 was interpolated from the curve fit and is defined as the concentration at which the compound elicits 50% of its maximal response. When the experiment was carried out multiple times for a given compound, the geometrical mean of all experiments is reported.

sGC = test: cGMP neuronal cell-based assay (rat primary neurons); conditions: rat primary hippocampal neurons, DETA-NO 10 μM or 30 μM, cGMP by LC-MS/MS; read-out: sGC Neuron EC50
Procedure: Rat primary neurons were isolated from fetuses of 18-day pregnant Sprague-Dawley females. The fetuses were collected in Hanks' balanced salt solution (HBSS) and brains were rapidly removed. The cerebral hippocampi were isolated and mechanically fragmented. Further tissue digestion was performed with 0.25% (wt/vol) trypsin solution in HBSS without Ca2+ and Mg2+ for 15 min at 37° C. After trypsination, cells were washed and resuspended in neurobasal medium supplemented with 0.5 mM L-glutamine, 12.5 uM glutamic acid, 2% B-27 and 100 U/mL penicillin, and 100 μg/mL streptomycin. Cells were plated at a density of 26×10^3 or 3×10^4 or 4×10^4 cells/well in a poly-D-lysine coated 384-well flat clear-bottom plate (Corning Cat No 354662). Cells were incubated 6-7 days at 37° C. in a humidified chamber with 5% CO2. Media was removed and cells were washed 1× with HBSS containing Ca2+ and Mg2+, and replaced with 40 uL HBSS containing 0.5 mM IBMX, and incubated for 15 minutes at 37° C. 10 uL of a 5× stock of test compounds with diethylenetriamine NONOate (DETA-NO) was added. Final concentration of DETA-NO was either 10 μM or 30 μM. Cells were incubated for 20 min at 37° C. Medium was removed, 50 uL of ice-cold 10% acetic acid was added, and incubated for 60 minutes at 4° C. Following centrifugation at 4° C. for 5 minutes at 1000×g to pellet cell debris, the supernatant was aspirated to a clean plate and the samples were analyzed for cGMP content. cGMP concentrations were determined from each sample using LC-MS/MS.
as §1

[1] = Rat cerebrospinal fluid (CSF) pharmacokinetics; format: in vivo; conditions: male, Sprague-Dawley; rat CSF/unbound plasma, PO 3 mg/kg
Procedure: PK in rats was determined following oral dosing. For the oral (PO) experiments, a group of 6 male Sprague-Dawley rats with an indwelling catheter placed in the cisterna magna were used. The PO group was dosed with 3.0, or 10 mg/kg of a compound formulated as a solution in PEG400 or suspension in 0.5% Tween 80 and 0.5% Methylcellulose in water. PO doses were administered by oral gavage and delivered to the stomach using a syringe and gavage tube. Following oral dosage administration, the gavage tube was flushed with approximately 0.5 mL of water to ensure complete delivery of the full dose.
Plasma samples were collected as follows: samples of CSF and blood were collected at 1 hour, 2, and optionally at 4 hours post-dosing. CSF samples (0.05 mL) were collected through the intracisternal catheter. Blood samples (0.25 mL) were collected through tail nick sampling. These samples were kept on ice until processed for plasma. Blood samples were centrifuged at 3200 rpm for 5 minutes at approximately 5° C. within 1 hour of collection. Plasma was directly transferred to individual Eppendorf tubes (0.125 mL). Plug caps were placed on the tubes and the tubes frozen at approximately −70° C. and stored until analysis. Plasma and CSF was collected and analyzed for the presence of a compound.
The compound in question and the internal standard were extracted from plasma by precipitation and from CSF by either precipitation or dilution. Samples were analyzed using liquid chromatography (LC) with tandem mass spectrometric detection (MS/MS) using electrospray ionization. The standard curve ranged from 0.1 to 1000 ng/mL. Results of the compounds described herein in this assay are illustrated in Table G below (for a 10 mg/kg dose and/or 3 mg/kg of the compound). Compound concentrations from several animals were combined to give the geometrical mean at each specific dosage and timepoint.
Kp,uu is defined as the concentration ratio of unbound drug in CSF to unbound drug in plasma. Unbound drug in plasma (or free plasma concentration) is calculated by multiplying the total plasma concentration by the unbound fraction as determined by plasma protein binding. The CSF concentration is then divided by the free plasma concentration to determine the Kp,uu. (See e.g., Di et al., J. Med. Chem., 56, 2-12 (2013))

SMILES	EC50 (sGC enzyme)	EC50 (sGC)	Kp uu at 1 h [1]	Kp uu at 2 h [1]	Kp uu at 4 h [1]
Oc1nc(-c2cn3ncnc3c(Cc3cc(F)ccc3F)n2)ncc1F [Compound I-12, 2-(8-(2,5-Difluorobenzyl)-[1,2,4]triazolo[1,5-a]pyrazin-6-yl)-5-fluoropyrimidin-4-ol]	100 to 1000 nM	≤ 100 nM			
Cc1cnc(-c2cn3ccnc3c(Cc3ccccc3F)n2)nc1O [Compound I-8, 2-(8-(2-fluorobenzyl)imidazo[1,2-a]pyrazin-6-yl)-5-methylpyrimidin-4-ol]	> 1000 nM				
Oc1nc(-c2cn3ccnc3c(Cc3cc(F)cc(F)c3)n2)ncc1F [Compound I-7, 2-(8-(3,5-Difluorobenzyl)imidazo[1,2-a]pyrazin-6-yl)-5-fluoropyrimidin-4-ol]	100 to 1000 nM	≤ 100 nM			
Cc1c(F)cc(Cc2nc(-c3ncc(F)c(O)n3)cn3ccnc23)cc1F [Compound I-3, 5-Fluoro-2-(8-(3,5-difluoro-4-methylbenzyl)imidazo[1,2-a]pyrazin-6-yl)pyrimidin-4-ol]	≤ 100 nM	≤ 100 nM			
Oc1nc(-c2cn3ncnc3c(Cc3cccc(F)c3F)n2)ncc1F [Compound I-10, 2-(8-(2,3-Difluorobenzyl)-[1,2,4]triazolo[1,5-a]pyrazin-6-yl)-5-fluoropyrimidin-4-ol]	100 to 1000 nM				
Oc1nc(-c2cn3ccnc3c(Cc3cccc(F)c3)n2)ncc1F [Compound I-1, 5-fluoro-2-(8-(3-fluorobenzyl)imidazo[1,2-a]pyrazin-6-yl)pyrimidin-4-ol]	100 to 1000 nM	100 to 1000 nM	≤ 1	1 to 2	≤ 1
Oc1nc(-c2cn3ncnc3c(Cc3cccc(F)c3)n2)ncc1F [Compound I-11, 5-Fluoro-2-(8-(3-fluorobenzyl)-[1,2,4]triazolo[1,5-a]pyrazin-6-yl)pyrimidin-4-ol]	100 to 1000 nM				
Oc1nc(-c2cn3ncnc3c(Cc3cc(F)cc(F)c3)n2)ncc1F [Compound I-13, 2-(8-(3,5-Difluorobenzyl)-[1,2,4]triazolo[1,5-a]pyrazin-6-yl)-5-fluoropyrimidin-4-ol]	100 to 1000 nM				
Cc1ccc(Cc2nc(-c3ncc(F)c(O)n3)cn3ccnc23)cc1F [Compound I-6, 5-Fluoro-2-(8-(3-fluoro-4-methylbenzyl)imidazo[1,2-a]pyrazin-6-yl)pyrimidin-4-ol]	≤ 100 nM	≤ 100 nM			
Oc1nc(-c2cn3c(F)cnc3c(Cc3ccccc3F)n2)ncc1F [Compound I-9]	100 to 1000 nM	≤ 100 nM			
